These results are taken from patent US5618943A, “Acetylenes disubstituted with a 5 OXO substituted tetrahydronaphthyl group and with an aryl or heteroaryl group having retinoid-like biological activity” (Allergan, priority 1994, dated 1997).

For assay [1], the system named is ornithine decarboxylase (ODC). Kind of assay: ODC assay: inhibition of TPA induction of ornithine decarboxylase (retinoic acid-like activity). The class given is biochemical. The settings on record: concentration of the test compound which causes 80% inhibition in the ODC assay; TPA-induced. From the text: The retinoic acid-like activity of these compounds is confirmed through the classic measure of retinoic acid activity involving the effects of retinoic acid on ornithine decarboxylase. The original work on the correlation between retinoic acid and decrease in cell proliferation was done by Verma & Boutwell, Cancer Research, 1977, 37,2196-2201. That reference discloses that ornithine decarboxylase (ODC) activity increased precedent to polyamine biosynthesis. It has been established elsewhere that increases in polyamine synthesis can be correlated or associated with cellular proliferation. Thus, if ODC activity could be inhibited, cell hyperproliferation could be modulated. Although all cases for ODC activity increases are unknown, it is known that 12-0-tetradecanoylphorbol-13-acetate (TPA) induces ODC activity. […] Activity of exemplary compounds of the present invention in the abovedescribed ODC assay is disclosed in Table 2 which provides the IC80 concentration for the respective exemplary compound. ("IC80 " is that concentration of the test compound which causes 80% inhibition in the ODC assay. By analogy, "IC60, for example, is that concentration of the test compound which causes 60% inhibition in the ODC assay.)

Assay [2] relates to ornithine decarboxylase (ODC). The conditions noted are these: literature statement; cited from earlier work.

With `CCOC(=O)c1ccc(C#Cc2ccc3c(c2)C(C)(C)CCC32SCCCS2)cc1` [Compound 59, Ethyl 4-[[5,6,7,8-tetrahydro-8,8-dimethyl-5-(2-(1,3-dithiane))napth-2-yl]ethynyl]benzoate], in assay [1], the IC80 conc was determined as 23.00 nmols.
Same read-out and setting: then `CCOC(=O)c1ccc(C#Cc2ccc3c(c2)C(C)(C)CCC3=O)nc1` [Compound 5, Ethyl 6-[(5,6,7,8-tetrahydro-8,8-dimethyl-5-oxonaphth-2-yl)ethynyl]nicotinate], with 113 nmols.
On the same count and under the same terms, with `CCOC(=O)c1ccc(C#Cc2ccc3c(c2)C(=O)CCC3(C)C)cc1` [Compound 2, Ethyl 4-[(5,6,7,8-tetrahydro-8,8-dimethyl-5-oxonaphth-3-yl)ethynyl]benzoate] the figure was 0.85 nmols.
Same read-out and setting: with `CC1(C)CCC2(SCCCS2)c2cc(C#Cc3ccc(C(=O)O)cc3)ccc21` [Compound 60, 4-[[5,6,7,8-tetrahydro-8,8-dimethyl-5-(2-(1,3-dithiane))naphth-3-yl]ethynyl]benzoic acid] the figure was 2.60 nmols.
As for `CC1(C)CCC(=O)c2ccc(C#Cc3ccc(C(=O)O)cc3)cc21` [Compound 7, 4-[(5,6,7,8-tetrahydro-8,8-dimethyl-5-oxonaphth-2-yl)ethynyl]benzoic acid], in assay [1], the IC80 conc turned out to be 1.60 nmols.
`CCOC(=O)c1ccc(C#Cc2ccc3c(c2)C2(CCC3(C)C)SCCCS2)cc1` [Compound 58, Ethyl. 4-[[5,6,7,8-tetrahydro-8,8-dimethyl-5-(2-(1,3-dithiane))naphth-3-yl]ethynyl]benzoate] showed an IC80 conc in assay [1] of 26.12 nmols.
Same read-out and setting: with `CCOC(=O)c1ccc(C#Cc2ccc3c(c2)C(C)(C)CCC3=O)cc1` [Compound 1, Ethyl 4-[(5,6,7,8-tetrahydro-8,8-dimethyl-5-oxonaphth-2-yl)ethynyl]benzoate] the figure was 1.60 nmols; with `CC1(C)CCC(=O)c2cc(C#Cc3ccc(C(=O)O)cc3)ccc21` [Compound 8, 4-[(5,6,7,8-tetrahydro-8,8-dimethyl-5-oxonaphth-3yl)ethynyl]benzoic acid], 1.37 nmols.
As for `CC1=C(/C=C/C(C)=C/C=C/C(C)=C/C(=O)O)C(C)(C)CCC1` [Retinoic acid], the “inhibition of TPA induction of ODC activity (in words)” value in assay [2] is listed as “inhibits this induction of ODC activity”.
